Several values for one entry are separate records, joined by “and”; a condition that tells them apart may be missing. Identical values can stand only once. Toxic doses and inconclusive results are not listed.
System: B6C3F1 mice, ip Sarcoma M5076, median survival T/C
Test: NCI In Vivo Anticancer Drug Screen. Data for tumor model Sarcoma M5076 (intraperitoneal) in B6C3F1 mice
Settings: endpoint: median survival time, higher = longer survival
Outline: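 Mice carrying the transplanted tumour received compound treatment. Survival was recorded, and each value is the treated-group measurement divided by that of the vehicle-dosed control group.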

[1] = dose: 25.0 mg/kg/injection, schedule: Q04DX004 (ip), vehicle: suspension in saline
[2] = dose: 6.25 mg/kg/injection, schedule: Q04DX004 (ip), vehicle: saline with Tween-80
[3] = dose: 12.5 mg/kg/injection, schedule: Q04DX004 (ip), vehicle: saline with Tween-80
[4] = dose: 15.0 mg/kg/injection, schedule: Q04DX004 (ip), vehicle: saline with Tween-80
[5] = dose: 25.0 mg/kg/injection, schedule: Q04DX004 (ip), vehicle: saline with Tween-80
[6] = dose: 30.0 mg/kg/injection, schedule: Q04DX004 (ip), vehicle: saline with Tween-80
[7] = dose: 50.0 mg/kg/injection, schedule: Q04DX004 (ip), vehicle: saline with Tween-80
[8] = dose: 100.0 mg/kg/injection, schedule: Q04DX004 (ip), vehicle: saline with Tween-80
[9] = dose: 50.0 mg/kg/injection, schedule: Q04DX004 (ip), vehicle: Klucel (hydroxypropylcellulose) (HPC)
[10] = dose: 100.0 mg/kg/injection, schedule: Q04DX004 (ip), vehicle: Klucel (hydroxypropylcellulose) (HPC)
[11] = dose: 200.0 mg/kg/injection, schedule: Q04DX004 (ip), vehicle: Klucel (hydroxypropylcellulose) (HPC)
[12] = dose: 200.0 mg/kg/injection, schedule: Q04DX004 (ip), vehicle: saline with Tween-80
[13] = dose: 37.5 mg/kg/injection, schedule: Q04DX004 (ip), vehicle: saline with Tween-80
[14] = dose: 75.0 mg/kg/injection, schedule: Q04DX004 (ip), vehicle: saline with Tween-80
[15] = dose: 150.0 mg/kg/injection, schedule: Q04DX004 (ip), vehicle: saline with Tween-80
[16] = dose: 300.0 mg/kg/injection, schedule: Q04DX004 (ip), vehicle: saline with Tween-80
[17] = dose: 400.0 mg/kg/injection, schedule: Q04DX004 (ip), vehicle: saline with Tween-80
[18] = dose: 800.0 mg/kg/injection, schedule: Q04DX004 (ip), vehicle: saline with Tween-80
[19] = dose: 400.0 mg/kg/injection, schedule: Q04DX004 (ip), vehicle: Klucel (hydroxypropylcellulose) (HPC)
[20] = dose: 800.0 mg/kg/injection, schedule: Q04DX004 (ip), vehicle: Klucel (hydroxypropylcellulose) (HPC)

SMILES: CCC1(O)C(=O)OCc2c1cc1n(c2=O)Cc2cc3cc(N)ccc3nc2-1 (centres undefined)
- T/C (dose: 7.5 mg/kg/injection, schedule: Q04DX004 (ip), vehicle: suspension in saline): 160 % of control
- T/C (dose: 9.0 mg/kg/injection, schedule: Q04DX004 (ip), vehicle: suspension in saline): 174 % of control
- T/C (dose: 15.0 mg/kg/injection, schedule: Q04DX004 (ip), vehicle: suspension in saline): 170 % of control and 231 % of control
- T/C [1]: 150 % of control
- T/C (dose: 42.0 mg/kg/injection, schedule: Q04DX004 (ip), vehicle: suspension in saline): 90 % of control

SMILES: N#Cc1c(N)[nH]c2ccc(Sc3ccccc3)cc12
- T/C [2]: 101 % of control
- T/C [3]: 112 % of control
- T/C [4]: 108 % of control
- T/C [5]: 109 % of control
- T/C [6]: 97 % of control
- T/C (dose: 36.0 mg/kg/injection, schedule: Q04DX004 (ip), vehicle: saline with Tween-80): 104 % of control
- T/C [7]: 114 % of control
- T/C (dose: 60.0 mg/kg/injection, schedule: Q04DX004 (ip), vehicle: saline with Tween-80): 95 % of control and 104 % of control
- T/C [8]: 116 % of control
- T/C (dose: 120.0 mg/kg/injection, schedule: Q04DX004 (ip), vehicle: saline with Tween-80): 110 % of control
- T/C (dose: 240.0 mg/kg/injection, schedule: Q04DX004 (ip), vehicle: saline with Tween-80): 113 % of control

SMILES: CCOC(=O)Nc1cc2c(c(N)n1)N=C(c1ccc3ccccc3c1)CN2
- T/C (dose: 3.75 mg/kg/injection, schedule: Q04DX004 (ip), vehicle: saline with Tween-80): 110 % of control
- T/C (dose: 7.5 mg/kg/injection, schedule: Q04DX004 (ip), vehicle: saline with Tween-80): 108 % of control
- T/C [4]: 120 % of control
- T/C [6]: 111 % of control

SMILES: CN(C)CCCOc1nc2c(c(=O)n(C)c(=O)n2C)n1C (tested in a mixture with another compound)
- T/C [9]: 169 % of control and 182 % of control
- T/C [10]: 163 % of control and 197 % of control
- T/C [11]: 208 % of control and 267 % of control

SMILES: O=[N+]([O-])O.[Ga]
- T/C (dose: 25.0 mg/kg/injection, schedule: Q04DX005 (ip), vehicle: saline): 111 % of control
- T/C (dose: 50.0 mg/kg/injection, schedule: Q04DX005 (ip), vehicle: saline): 115 % of control
- T/C (dose: 100.0 mg/kg/injection, schedule: Q04DX005 (ip), vehicle: saline): 115 % of control

SMILES: CCCCNP1(NCCCC)=NP(NCCCC)(NCCCC)=NP(NCCCC)(NCCCC)=NP(NCCCC)(NCCCC)=N1
- T/C (dose: 3.13 mg/kg/injection, schedule: Q04DX004 (ip), vehicle: saline with Tween-80): 96 % of control
- T/C [2]: 104 % of control
- T/C [3]: 102 % of control
- T/C [5]: 96 % of control
- T/C [7]: 97 % of control

SMILES: N#CCS(=O)(=O)c1cccc[n+]1[O-]
- T/C [7]: 99 % of control
- T/C [8]: 99 % of control
- T/C [12]: 93 % of control

SMILES: N/C(=N/N=C/c1cc(Br)cc(Br)c1O)NO
- T/C [1]: 102 % of control
- T/C (dose: 50.0 mg/kg/injection, schedule: Q04DX004 (ip), vehicle: suspension in saline): 98 % of control
- T/C (dose: 100.0 mg/kg/injection, schedule: Q04DX004 (ip), vehicle: suspension in saline): 110 % of control

SMILES: Cc1nc2c(cnn2C)cc1CCc1ccccc1
- T/C (dose: 18.75 mg/kg/injection, schedule: Q04DX004 (ip), vehicle: saline with Tween-80): 99 % of control
- T/C [13]: 101 % of control
- T/C [14]: 99 % of control
- T/C [15]: 99 % of control
- T/C [16]: 90 % of control

SMILES: CCOc1cc2c(cc1C(C)c1ccc(OC)cc1)OCO2 (centres undefined)
- T/C (dose: 50.0 mg/kg/injection, schedule: Q04DX004 (ip), vehicle: distilled water + alcohol): 119 % of control
- T/C (dose: 100.0 mg/kg/injection, schedule: Q04DX004 (ip), vehicle: distilled water + alcohol): 110 % of control
- T/C (dose: 200.0 mg/kg/injection, schedule: Q04DX004 (ip), vehicle: distilled water + alcohol): 123 % of control

SMILES: CN1CCOc2c1cnn(CCO)c2=O
- T/C [5]: 105 % of control
- T/C [7]: 96 % of control
- T/C [8]: 94 % of control
- T/C [12]: 99 % of control
- T/C [17]: 99 % of control

SMILES: O=C(O)CCCCCCCC(=O)O
- T/C (dose: 75.0 mg/kg/injection, schedule: Q04DX004 (ip), vehicle: distilled water + Tween-80): 111 % of control
- T/C (dose: 150.0 mg/kg/injection, schedule: Q04DX004 (ip), vehicle: distilled water + Tween-80): 99 % of control
- T/C (dose: 300.0 mg/kg/injection, schedule: Q04DX004 (ip), vehicle: distilled water + Tween-80): 93 % of control

SMILES: COC1=C(OC)C(=O)C(C(=O)CCCCC(=O)O)=C(C)C1=O
- T/C [5]: 100 % of control
- T/C [7]: 98 % of control and 105 % of control
- T/C [8]: 92 % of control and 97 % of control
- T/C [12]: 91 % of control
- T/C [17]: 91 % of control and 97 % of control
- T/C [18]: 95 % of control

SMILES: Clc1cccc(Cl)c1C(Nc1nncs1)Nc1nncs1
- T/C [7]: 112 % of control and 122 % of control
- T/C [8]: 123 % of control
- T/C [17]: 164 % of control
- T/C [18]: 157 % of control and 195 % of control

SMILES: Cn1c([N+](=O)[O-])cnc1CSc1ccc(C#N)cc1
- T/C [9]: 96 % of control
- T/C [10]: 93 % of control
- T/C [11]: 102 % of control
- T/C [19]: 94 % of control
- T/C [20]: 91 % of control

SMILES: CCOC(=O)c1c[nH]c2ccc3c(nc(C)n3C)c2c1=O
- T/C [9]: 101 % of control
- T/C [10]: 104 % of control
- T/C [11]: 101 % of control
- T/C [19]: 98 % of control
- T/C [20]: 103 % of control

SMILES: O=C(CCl)N1CCN(C/C=C/c2ccccc2)CC1
- T/C (dose: 37.5 mg/kg/injection, schedule: Q04DX004 (ip), vehicle: saline): 106 % of control
- T/C (dose: 75.0 mg/kg/injection, schedule: Q04DX004 (ip), vehicle: saline): 96 % of control
- T/C (dose: 150.0 mg/kg/injection, schedule: Q04DX004 (ip), vehicle: saline): 96 % of control

SMILES: O=S1(=O)C(c2ccc(F)cc2)=C(O)c2cc3ccccc3nc21
- T/C (dose: 17.19 mg/kg/injection, schedule: Q04DX004 (ip), vehicle: sodium bicarbonate): 97 % of control
- T/C (dose: 34.38 mg/kg/injection, schedule: Q04DX004 (ip), vehicle: sodium bicarbonate): 93 % of control
- T/C (dose: 68.75 mg/kg/injection, schedule: Q04DX004 (ip), vehicle: sodium bicarbonate): 93 % of control

SMILES: Cn1c(=O)ccc2c1nc1ccccc1[n+]2[O-]
- T/C [3]: 98 % of control
- T/C [5]: 99 % of control
- T/C [7]: 103 % of control
- T/C [8]: 99 % of control
- T/C [12]: 94 % of control

SMILES: N#CC1C(=O)NC(=O)C(C#N)C1C1C(=O)NC2CCCCC21 (centres undefined)
- T/C (dose: 43.75 mg/kg/injection, schedule: Q04DX004 (ip), vehicle: saline with Tween-80): 93 % of control
- T/C (dose: 87.5 mg/kg/injection, schedule: Q04DX004 (ip), vehicle: saline with Tween-80): 100 % of control
- T/C (dose: 175.0 mg/kg/injection, schedule: Q04DX004 (ip), vehicle: saline with Tween-80): 95 % of control
- T/C (dose: 350.0 mg/kg/injection, schedule: Q04DX004 (ip), vehicle: saline with Tween-80): 95 % of control

SMILES: O=c1cc(-c2ccccc2)[nH]c2c1CCCC2
- T/C [14]: 91 % of control
- T/C [15]: 99 % of control
- T/C [16]: 106 % of control
- T/C (dose: 600.0 mg/kg/injection, schedule: Q04DX004 (ip), vehicle: saline with Tween-80): 98 % of control

SMILES: C=CCNc1nc2c(s1)c(C)c(O)c1ccccc12
- T/C [13]: 98 % of control
- T/C [14]: 88 % of control
